Results on twelve compounds are retold here after ChEMBL document CHEMBL1201862, “PubChem BioAssay data set” (2004).

Some test systems named below: UACC-257; RXF 393; SK-OV-3; A549; HL-60; NCI-H460; SF-268; RPMI-8226; OVCAR-5; SK-MEL-5; U-251; TK-10; SK-MEL-2; NCI-H522; ACHN; CAKI-1; MCF7; MDA-MB-435.
What all share (assay): inhibition of tumour cell growth, NCI panel, 48 h

Each structure is given as a SMILES string.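 96-well plates; 48 h exposure; 5 concentrations. Endpoints by linear interpolation between flanking doses. Not reached: highest tested concentration assigned. Here, GI50 denotes the concentration required for 50% inhibition of growth.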 Activity calls are given as the source filed them. No stated cut-off is given here; in the data, active = GI50 up to about 1.1 µM and inactive = higher.

Regarding `C=CCNC(=O)NCCCCC(NC(C)=O)C(=O)NCc1ccccc1` (stereo not drawn), the GI50 in the assay on UACC-257, in the assay on RXF 393, in the assay on SK-OV-3, with A549, in the assay with HL-60 and in the assay with NCI-H460 was > 100 µM (inactive) in each case. Also, the GI50 with SF-268, in the assay with RPMI-8226, in the assay on OVCAR-5, in the assay on SK-MEL-5, in the assay on U-251 and in the assay on TK-10 was > 100 µM (inactive) in each case. The GI50 in the assay with SK-MEL-2, in the assay on NCI-H522, in the assay on ACHN and with CAKI-1 was > 100 µM (inactive) throughout.

Take `CCNC(=S)N/N=C/c1cc(OC)ccc1O`: the GI50 with UACC-257 was > 100 µM (inactive); with RXF 393 it was > 100 µM (inactive); in the assay with MCF7, 5.74 µM (inactive); in the assay on SK-OV-3 it was > 100 µM (inactive); in the assay on A549, 52.8 µM (inactive); in the assay on HL-60, > 100 µM (inactive). Also, the GI50 is 35.2 µM (inactive) in the assay with NCI-H460; 8.43 µM (inactive) in the assay with SF-268; 64.6 µM (inactive) with MDA-MB-435; > 100 µM (inactive) in the assay on OVCAR-5; > 100 µM (inactive) in the assay with SK-MEL-5; 61.4 µM (inactive) with U-251. Further, the GI50 was > 100 µM (inactive) in the assay on TK-10, > 100 µM (inactive) in the assay with SK-MEL-2, 65.8 µM (inactive) with NCI-H522 and 66.7 µM (inactive) in the assay on ACHN.

As to `COc1ccccc1NC(=S)N/N=C(/C)c1ccccn1`, the GI50 was < 0.01 µM (active) in the assay with UACC-257; 0.658 µM (active) in the assay on RXF 393; < 0.01 µM (active) in the assay with MCF7; < 0.0213 µM (active) with SK-OV-3; < 0.0274 µM (active) in the assay with A549; < 0.01 µM (active) in the assay with HL-60. The GI50 in the assay on NCI-H460 is < 0.0132 µM (active); with SF-268, < 0.0124 µM (active); in the assay on RPMI-8226 it was < 0.01 µM (active); with MDA-MB-435, 0.968 µM (active); in the assay with SK-MEL-5, < 0.041 µM (active); in the assay with U-251, < 0.0172 µM (active). Also, the GI50 in the assay with TK-10 was 0.0644 µM (active); with SK-MEL-2, 7.5 µM (inactive); in the assay with ACHN, < 0.0106 µM (active); in the assay on CAKI-1, 0.0132 µM (active).

For the compound `C=C1C(=O)CC2C1CC(=O)/C(C)=C/CCC(C)(O)C2O` (stereo not drawn), the GI50 in the assay on UACC-257 is 0.708 µM (active); in the assay on RXF 393 it was 6.67 µM (inactive); in the assay on MCF7 it was 0.249 µM (active); in the assay with SK-OV-3 it was 2.84 µM (inactive); in the assay on A549 it was 27.3 µM (inactive); in the assay with HL-60, 4.41 µM (inactive). Further, the GI50 was 2.38 µM (inactive) in the assay with NCI-H460; 18.1 µM (inactive) in the assay on SF-268; 1.41 µM (inactive) in the assay on RPMI-8226; 6.55 µM (inactive) in the assay with MDA-MB-435; 17.5 µM (inactive) in the assay with OVCAR-5; 6.79 µM (inactive) with SK-MEL-5. The GI50 is 10.8 µM (inactive) in the assay on U-251; 0.562 µM (active) in the assay on TK-10; 0.986 µM (active) in the assay on SK-MEL-2; 1.5 µM (inactive) in the assay on NCI-H522; 2.37 µM (inactive) in the assay with ACHN; 1.55 µM (inactive) in the assay with CAKI-1.

With `Cc1ccc(NC(=O)CC/C(CC(=O)C(C)(C)C)=N\NC(=O)C[n+]2ccccc2)cc1C`, the GI50 in the assay on UACC-257 was > 100 µM (inactive); with RXF 393 it was 68.1 µM (inactive); in the assay with SK-OV-3, > 100 µM (inactive); with A549, > 100 µM (inactive); in the assay with HL-60, 32 µM (inactive); with NCI-H460, 51.9 µM (inactive). The GI50 was > 100 µM (inactive) in the assay on SF-268; 87.7 µM (inactive) in the assay on RPMI-8226; > 100 µM (inactive) with OVCAR-5; > 100 µM (inactive) with SK-MEL-5; 87.9 µM (inactive) in the assay with U-251; > 100 µM (inactive) in the assay with TK-10. The GI50 with SK-MEL-2, with NCI-H522, in the assay with ACHN and with CAKI-1 was > 100 µM (inactive) in each case.

Take `O=C1CC[C@@H](S(=O)(=O)c2ccccc2)[C@@H](/C=C/c2ccccc2)O1`: the GI50 in the assay on UACC-257, with RXF 393, with SK-OV-3, in the assay with A549, with HL-60 and in the assay with NCI-H460 was > 100 µM (inactive) in each case. The GI50 in the assay with RPMI-8226, with OVCAR-5, in the assay on SK-MEL-5, in the assay on U-251, in the assay on TK-10 and with NCI-H522 was > 100 µM (inactive) throughout. Besides, in the assay with ACHN, the GI50 is > 100 µM (inactive).

Consider `Cc1ccc(CNc2ccc(Br)cc2)cc1`, for which the GI50 in the assay on UACC-257 was 24.9 µM (inactive); in the assay on RXF 393, 23.1 µM (inactive); in the assay with MCF7, 18.7 µM (inactive); with SK-OV-3 it was 53.8 µM (inactive); with A549 it was 23.8 µM (inactive); in the assay with HL-60 it was 25.2 µM (inactive). In addition, the GI50 in the assay on NCI-H460 was 23.8 µM (inactive); in the assay with SF-268, 31.9 µM (inactive); with RPMI-8226, 3.44 µM (inactive); in the assay with MDA-MB-435, 22.8 µM (inactive); in the assay on OVCAR-5 it was > 100 µM (inactive); with SK-MEL-5 it was 6.71 µM (inactive). Besides, the GI50 with U-251 is 28.1 µM (inactive); with TK-10, 40 µM (inactive); with NCI-H522 it was 17.7 µM (inactive); with ACHN, 11.4 µM (inactive); in the assay on CAKI-1, 31.6 µM (inactive).

`N#CC(C#N)=c1ccc(=C2NCC3CCCN23)cc1` (stereo not drawn): the GI50 in the assay on UACC-257, in the assay on RXF 393, in the assay with SK-OV-3, with A549, with HL-60 and in the assay on NCI-H460 was > 100 µM (inactive) in each case. For the same compound, the GI50 in the assay with SF-268, in the assay on RPMI-8226, in the assay on OVCAR-5, in the assay on SK-MEL-5, in the assay on U-251 and in the assay on TK-10 was > 100 µM (inactive) throughout. The GI50 with SK-MEL-2, with NCI-H522 and in the assay on CAKI-1 was > 100 µM (inactive) in each case.

As to `CCC/C(Cl)=N/OC(NC(=O)OCC)(C(F)(F)F)C(F)(F)F`, the GI50 was 20.6 µM (inactive) in the assay on UACC-257; 19 µM (inactive) with RXF 393; 23.6 µM (inactive) with MCF7; > 100 µM (inactive) in the assay with A549; 17.4 µM (inactive) with HL-60; > 100 µM (inactive) with NCI-H460. The GI50 was 19.9 µM (inactive) with SF-268; 23.1 µM (inactive) in the assay on RPMI-8226; 18.6 µM (inactive) with MDA-MB-435; 16.4 µM (inactive) in the assay with OVCAR-5; 23.8 µM (inactive) with SK-MEL-5; > 100 µM (inactive) in the assay with U-251. Further, the GI50 in the assay with TK-10 was 19 µM (inactive); in the assay with SK-MEL-2, > 100 µM (inactive); with NCI-H522, > 100 µM (inactive); in the assay with ACHN it was 18.3 µM (inactive); with CAKI-1 it was 20.6 µM (inactive).

On to `Cc1ccc(C(=O)CC(O)(C(F)(F)F)C(F)(F)F)cc1[N+](=O)[O-]`, for which the GI50 with UACC-257 is 3.21 µM (inactive); in the assay on RXF 393, 13.8 µM (inactive); with MCF7 it was 3.14 µM (inactive); with SK-OV-3, 18.1 µM (inactive); in the assay with A549, 11.1 µM (inactive); in the assay with HL-60, 2.12 µM (inactive). For the same compound, the GI50 in the assay on NCI-H460 was 5.78 µM (inactive); in the assay on SF-268, 9.42 µM (inactive); in the assay with RPMI-8226 it was 12.6 µM (inactive); in the assay with MDA-MB-435, 8.41 µM (inactive); in the assay with OVCAR-5, 18 µM (inactive); with SK-MEL-5 it was 16.4 µM (inactive). Further, the GI50 in the assay on U-251 was 14.2 µM (inactive); in the assay on TK-10, 17.6 µM (inactive); with SK-MEL-2, 13.7 µM (inactive); with NCI-H522, 0.331 µM (active); in the assay with ACHN, 15.5 µM (inactive); with CAKI-1, 2.36 µM (inactive).

On to `Cc1cccc2c(=O)c3cccc(CC(=O)O)c3oc12`, for which the GI50 with UACC-257, in the assay with MCF7, in the assay with SK-OV-3, in the assay with A549, in the assay on HL-60 and in the assay on NCI-H460 was > 100 µM (inactive) each time. Besides, the GI50 in the assay on SF-268, in the assay on RPMI-8226, in the assay on MDA-MB-435, in the assay with SK-MEL-5, with U-251 and with TK-10 was > 100 µM (inactive) in each case. In addition, the GI50 in the assay on SK-MEL-2, in the assay with NCI-H522, in the assay with ACHN and with CAKI-1 was > 100 µM (inactive) in each case.

On to `Nc1ccc(Nc2cc(O)nc(O)n2)cc1`, for which the GI50 in the assay with UACC-257, in the assay with MCF7, with SK-OV-3, in the assay on A549, in the assay on HL-60 and with NCI-H460 was > 100 µM (inactive) in each case. Besides, the GI50 with SF-268, in the assay with RPMI-8226, with MDA-MB-435, in the assay with SK-MEL-5, in the assay on U-251 and in the assay with TK-10 was > 100 µM (inactive) each time. The GI50 in the assay on NCI-H522, in the assay on ACHN and with CAKI-1 was > 100 µM (inactive) throughout.
